Entries after “also recorded” stand apart in the source; their conditions may differ. Marks after values point to notes of the source that are not given here.
Assay: Safety, DLT, MTD and adverse events in patients with advanced solid tumors or lymphoma (Example 2)
Type: in vivo
Text: DLT was defined as first course adverse events […] hematologic toxicity. The MTD was defined as one dose level below the dose at which […] of six patients experienced DLT.
Dose reduction by one level was applied for the occurrence of either grade 3 nonhematologic toxicity, grade 4 hematologic toxicity, persistent (≦2 weeks) grade 2 nonhematologic toxicity, or per the investigator's assessment. […] No limitation for the number of dose reductions was chosen.
At study entry, history, physical examination, laboratory studies (CBC, electrolytes, creatinine, blood urea nitrogen, total and direct bilirubin, ALT, AST, alkaline phosphatase, uric acid, prothrombin time, partial thromboplastin time, and urinalysis), computed tomography scan and chest x-ray and ECG were performed. Clinical assessments, including a physical examination and adverse event evaluation, were conducted at each follow-up. Adverse events were graded by the NCI Common Toxicity Criteria (version 2.0). Computed tomography scans and staging was performed every 6 weeks for the q14-day schedule. Disease-specific staging techniques, such as bone marrow aspirate and biopsy, flow cytometry, cutaneous lesion photography, or bone scan were used as indicated. Response evaluations used the Response Evaluation Criteria in Solid Tumors and the Cheson criteria for lymphoma. Multiple-gated acquisition (MUGA) scans were obtained on the q14-day schedule at base line, before course 2 and at each restaging. Laboratory studies (CBC with differential, chemistry 20, prothrombin time and […] thromboplastin time) were performed on days 1, 3, 5, 7 and repeated weakly.

## Nc1ccccc1NC(=O)c1ccc(CNC(=O)OCc2cccnc2)cc1 [SNDX-275, N-(2-aminophenyl) 4-[N-(pyrid-3-yl)methyloxycarbonylaminomethyl]benzamide]
Every 14 days, 2 mg/m^2
  DLTs: 0
  No. of Patients With First Course DLT: 0
Every 14 days, 4 mg/m^2
  DLTs: 0
  No. of Patients With First Course DLT: 0
Every 14 days, 6 mg/m^2
  No. of Patients With First Course DLT: 1
Every 14 days, 6 mg/m^2, anorexia, nausea, and vomiting
  DLTs: 3†
Every 14 days, 8 mg/m^2
  DLTs: 0
  No. of Patients With First Course DLT: 0
Every 14 days, 10 mg/m^2
  No. of Patients With First Course DLT: 1
Every 14 days, 10 mg/m^2, anorexia, nausea, and vomiting
  DLTs: 3†
Every 14 days, 12 mg/m^2
  No. of Patients With First Course DLT: 2
Every 14 days, 12 mg/m^2, anorexia, nausea, vomiting, and fatigue
  DLTs: 7‡
Every day x 28/42 days, 2 mg/m^2, 2 patients
  No. of Patients With First Course DLT: 2
Daily schedule (once-a-day×28 every 6 weeks), first dose level 2 mg/m^2
  MTD: exceeded at the first dose level
human, in vivo
  Abdominal pain: % (All Grades): 7%
  Anemia: No. of Patients (All Grades): 8
  Anorexia: % (All Grades): 36%
  Anorexia: Grade 3: 4
  Anorexia: No. of Patients (All Grades): 10
  Bilirutin: % (All Grades): 14%
  Bilirutin: No. of Patients (All Grades): 4
  Chest pain: % (All Grades): 7%
  Chest pain: No. of Patients (All Grades): 2
  Constipation: % (All Grades): 7%
  Constipation: No. of Patients (All Grades): 2
  Hypermagnesemia: No. of Patients (All Grades): 2
  Hypoalbuminemia: % (All Grades): 64%
  Hypoalbuminemia: No. of Patients (All Grades): 18
  Hypocalcemia: % (All Grades): 21%
  Hypocalcemia: No. of Patients (All Grades): 6
  Hypokalemia: % (All Grades): 4%
  Hypokalemia: No. of Patients (All Grades): 1
  Hyponatremia: % (All Grades): 25%
  Hyponatremia: No. of Patients (All Grades): 7
  Infection w/o neutropenia: % (All Grades): 7%
  Infection w/o neutropenia: Grade 3: 0
  Infection w/o neutropenia: No. of Patients (All Grades): 2
  Leucopenia: % (All Grades): 21%
  Leucopenia: No. of Patients (All Grades): 6
  Libido: % (All Grades): 4%
  Libido: Grade 3: 0
  Libido: No. of Patients (All Grades): 1
  Myalgia: Grade 3: 0
  Myalgia: No. of Patients (All Grades): 1
  Nail changes: % (All Grades): 4%
  Nail changes: Grade 3: 0
  Nail changes: No. of Patients (All Grades): 1
  Nausea: % (All Grades): 64%
  Nausea: Grade 3: 4
  Nausea: No. of Patients (All Grades): 18
  Neurosensory deficits: % (All Grades): 7%
  Neurosensory deficits: No. of Patients (All Grades): 2
  Sinus Tachycardia: No. of Patients (All Grades): 1
  Stomatitis: % (All Grades): 4%
  Stomatitis: No. of Patients (All Grades): 1
  Sweating: % (All Grades): 4%
  Sweating: Grade 3: 0
  Sweating: No. of Patients (All Grades): 1
  Taste disturbance: % (All Grades): 29%
  Taste disturbance: Grade 3: 0
  Taste disturbance: No. of Patients (All Grades): 8
human, in vivo, po
  tolerability: intolerable
q14-day schedule
  MTD (and recommended phase II dose): 10 mg/m^2
  SNDX-275-related first course grade 4 adverse events: no SNDX-275-related first course grade 4 adverse events
  dose-limiting toxicities: nausea, vomiting, anorexia and fatigue; also recorded: anorexia, nausea, vomiting and fatigue
  tolerability: reasonably well-tolerated
q14-day schedule, first course
  Abdominal pain: No. of Patients (All Grades): 2
  Alkaline phosphatase: % (All Grades): 4%
  Alkaline phosphatase: No. of Patients (All Grades): 1
  Allergic reaction: % (All Grades): 4%
  Allergic reaction: Grade 3: 0
  Allergic reaction: No. of Patients (All Grades): 1
  Anemia: % (All Grades): 29%
  Cough: % (All Grades): 4%
  Cough: No. of Patients (All Grades): 1
  Creatinine: % (All Grades): 7%
  Creatinine: No. of Patients (All Grades): 2
  Dehydration: % (All Grades): 11%
  Dehydration: Grade 3: 0
  Dehydration: No. of Patients (All Grades): 3
  Depression: % (All Grades): 4%
  Depression: Grade 3: 0
  Depression: No. of Patients (All Grades): 1
  Diarrhea: % (All Grades): 7%
  Diarrhea: No. of Patients (All Grades): 2
  Dyspepsia: % (All Grades): 21%
  Dyspepsia: No. of Patients (All Grades): 6
  Fatigue: % (All Grades): 54%
  Fatigue: Grade 3: 1
  Fatigue: No. of Patients (All Grades): 15
  Fever: % (All Grades): 4%
  Fever: Grade 3: 0
  Fever: No. of Patients (All Grades): 1
  Flatulence: % (All Grades): 11%
  Flatulence: No. of Patients (All Grades): 3
  GI other: % (All Grades): 7%
  GI other: No. of Patients (All Grades): 2
  Headache: % (All Grades): 50%
  Headache: Grade 3: 0
  Headache: No. of Patients (All Grades): 14
  Hyperglycemia: % (All Grades): 11%
  Hyperglycemia: No. of Patients (All Grades): 3
  Hypermagnesemia: % (All Grades): 7%
  Lymphopenia: % (All Grades): 18%
  Lymphopenia: No. of Patients (All Grades): 5
  Middle ear infection: % (All Grades): 4%
  Middle ear infection: Grade 3: 0
  Middle ear infection: No. of Patients (All Grades): 1
  Muscle weakness: % (All Grades): 4%
  Muscle weakness: Grade 3: 0
  Muscle weakness: No. of Patients (All Grades): 1
  Myalgia: % (All Grades): 4%
  Neutropenia: % (All Grades): 25%
  Neutropenia: No. of Patients (All Grades): 7
  Pain other: % (All Grades): 4%
  Pain other: No. of Patients (All Grades): 1
  Pleuretic pain: % (All Grades): 4%
  Pleuretic pain: No. of Patients (All Grades): 1
  Rhinitis: % (All Grades): 4%
  Rhinitis: No. of Patients (All Grades): 1
  Sinus Tachycardia: % (All Grades): 3%
  Thrombooytopenia: % (All Grades): 36%
  Thrombooytopenia: No. of Patients (All Grades): 10
  Tremors: % (All Grades): 4%
  Tremors: No. of Patients (All Grades): 1
  Urinary electrolyte wasting: % (All Grades): 11%
  Urinary electrolyte wasting: No. of Patients (All Grades): 3
  Vomiting: % (All Grades): 39%
  Vomiting: Grade 3: 4
  Vomiting: No. of Patients (All Grades): 11

From patent publication US20130303575A1, “ADMINISTRATION OF AN INHIBITOR OF HDAC” (priority 2007, published 2013)
